According to the NIST ThermoML archive (doi:10.1016/j.jct.2010.09.008):

Assays:
[1] = xn = mol fraction of the nth substance listed; conditions: 101.3 kPa, Liquid, Vibrating tube method
[2] = relative permittivity at zero frequency (dimensionless); xn = mol fraction of the nth substance listed; conditions: 101.3 kPa, Liquid, AC Method
[3] = 101.33 kPa, Liquid, Vibrating tube method
[4] = relative permittivity at zero frequency (dimensionless); conditions: 101.33 kPa, Liquid, AC method

COCCOCCOCCOC [2,5,8,11-tetraoxadodecane] + CCCCCCC
Conditions | mass density [kg/m3] | relative permittivity at zero frequency
[1], 288.15 K, x2 = 0.0478 | 977.7 | –
[1], 288.15 K, x2 = 0.1018 | 963.5 | –
[1], 288.15 K, x2 = 0.2008 | 936.93 | –
[1], 288.15 K, x2 = 0.3046 | 908.26 | –
[1], 288.15 K, x2 = 0.4046 | 879.55 | –
[1], 288.15 K, x2 = 0.502 | 850.68 | –
[1], 288.15 K, x2 = 0.5988 | 821.04 | –
[1], 288.15 K, x2 = 0.6937 | 791 | –
[1], 288.15 K, x2 = 0.7981 | 756.91 | –
[1], 288.15 K, x2 = 0.8992 | 722.88 | –
[1], 288.15 K, x2 = 0.9471 | 706.43 | –
[1], 298.15 K, x2 = 0.0478 | 968.24 | –
[1], 298.15 K, x2 = 0.1018 | 954.08 | –
[1], 298.15 K, x2 = 0.2008 | 927.56 | –
[1], 298.15 K, x2 = 0.3046 | 898.85 | –
[1], 298.15 K, x2 = 0.4046 | 870.31 | –
[1], 298.15 K, x2 = 0.502 | 841.51 | –
[1], 298.15 K, x2 = 0.5988 | 811.96 | –
[1], 298.15 K, x2 = 0.6937 | 782.03 | –
[1], 298.15 K, x2 = 0.7981 | 748.1 | –
[1], 298.15 K, x2 = 0.8992 | 714.23 | –
[1], 298.15 K, x2 = 0.9471 | 697.88 | –
[1], 308.15 K, x2 = 0.0478 | 958.76 | –
[1], 308.15 K, x2 = 0.1018 | 944.65 | –
[1], 308.15 K, x2 = 0.2008 | 918.17 | –
[1], 308.15 K, x2 = 0.3046 | 889.51 | –
[1], 308.15 K, x2 = 0.4046 | 861.04 | –
[1], 308.15 K, x2 = 0.502 | 832.28 | –
[1], 308.15 K, x2 = 0.5988 | 802.84 | –
[1], 308.15 K, x2 = 0.6937 | 773 | –
[1], 308.15 K, x2 = 0.7981 | 739.22 | –
[1], 308.15 K, x2 = 0.8992 | 705.5 | –
[1], 308.15 K, x2 = 0.9471 | 689.25 | –
[2], 288.15 K, x2 = 0.0502 | – | 7.53
[2], 288.15 K, x2 = 0.0996 | – | 7.18
[2], 288.15 K, x2 = 0.2037 | – | 6.44
[2], 288.15 K, x2 = 0.3128 | – | 5.7
[2], 288.15 K, x2 = 0.3994 | – | 5.13
[2], 288.15 K, x2 = 0.5007 | – | 4.49
[2], 288.15 K, x2 = 0.6027 | – | 3.88
[2], 288.15 K, x2 = 0.7014 | – | 3.32
[2], 288.15 K, x2 = 0.8007 | – | 2.81
[2], 288.15 K, x2 = 0.8993 | – | 2.35
[2], 288.15 K, x2 = 0.9502 | – | 2.14
[2], 298.15 K, x2 = 0.0511 | – | 7.28
[2], 298.15 K, x2 = 0.0992 | – | 6.94
[2], 298.15 K, x2 = 0.2012 | – | 6.26
[2], 298.15 K, x2 = 0.3025 | – | 5.59
[2], 298.15 K, x2 = 0.4095 | – | 4.91
[2], 298.15 K, x2 = 0.5014 | – | 4.36
[2], 298.15 K, x2 = 0.6006 | – | 3.79
[2], 298.15 K, x2 = 0.6989 | – | 3.26
[2], 298.15 K, x2 = 0.7898 | – | 2.81
[2], 298.15 K, x2 = 0.902 | – | 2.31
[2], 298.15 K, x2 = 0.9501 | – | 2.11
[2], 308.15 K, x2 = 0.0504 | – | 7.04
[2], 308.15 K, x2 = 0.1008 | – | 6.71
[2], 308.15 K, x2 = 0.2074 | – | 6.01
[2], 308.15 K, x2 = 0.3092 | – | 5.37
[2], 308.15 K, x2 = 0.4042 | – | 4.8
[2], 308.15 K, x2 = 0.5048 | – | 4.22
[2], 308.15 K, x2 = 0.6022 | – | 3.69
[2], 308.15 K, x2 = 0.7071 | – | 3.15
[2], 308.15 K, x2 = 0.801 | – | 2.7
[2], 308.15 K, x2 = 0.9016 | – | 2.28
[2], 308.15 K, x2 = 0.9514 | – | 2.09

COCCOCCOC [2,5,8-trioxanonane]
Conditions | mass density, 288.15 K [kg/m3] | mass density, 298.15 K [kg/m3] | mass density, 308.15 K [kg/m3] | relative permittivity at zero frequency, 288.15 K | relative permittivity at zero frequency, 298.15 K | relative permittivity at zero frequency, 308.15 K
[3] | 949.34 | 939.35 | 929.36 | – | – | –
[4] | – | – | – | 7.69 | 7.4 | 7.12

COCCOCCOC [2,5,8-trioxanonane] + CCCCCCC
Conditions | mass density [kg/m3] | relative permittivity at zero frequency
[1], 288.15 K, x2 = 0.0482 | 935.46 | –
[1], 288.15 K, x2 = 0.0986 | 921.11 | –
[1], 288.15 K, x2 = 0.1969 | 893.54 | –
[1], 288.15 K, x2 = 0.3042 | 864.14 | –
[1], 288.15 K, x2 = 0.4054 | 836.87 | –
[1], 288.15 K, x2 = 0.5047 | 810.62 | –
[1], 288.15 K, x2 = 0.6049 | 784.64 | –
[1], 288.15 K, x2 = 0.6982 | 760.9 | –
[1], 288.15 K, x2 = 0.788 | 738.48 | –
[1], 288.15 K, x2 = 0.8899 | 713.78 | –
[1], 288.15 K, x2 = 0.9452 | 700.73 | –
[1], 298.15 K, x2 = 0.0484 | 925.56 | –
[1], 298.15 K, x2 = 0.1001 | 910.8 | –
[1], 298.15 K, x2 = 0.1957 | 884.11 | –
[1], 298.15 K, x2 = 0.2887 | 858.66 | –
[1], 298.15 K, x2 = 0.4049 | 827.49 | –
[1], 298.15 K, x2 = 0.4975 | 803.13 | –
[1], 298.15 K, x2 = 0.5939 | 778.25 | –
[1], 298.15 K, x2 = 0.6925 | 753.3 | –
[1], 298.15 K, x2 = 0.7931 | 728.38 | –
[1], 298.15 K, x2 = 0.8988 | 703 | –
[1], 298.15 K, x2 = 0.9481 | 691.49 | –
[1], 308.15 K, x2 = 0.0482 | 915.56 | –
[1], 308.15 K, x2 = 0.098 | 901.53 | –
[1], 308.15 K, x2 = 0.1961 | 874.29 | –
[1], 308.15 K, x2 = 0.3036 | 845.06 | –
[1], 308.15 K, x2 = 0.3981 | 819.81 | –
[1], 308.15 K, x2 = 0.4994 | 793.28 | –
[1], 308.15 K, x2 = 0.599 | 767.73 | –
[1], 308.15 K, x2 = 0.6963 | 743.26 | –
[1], 308.15 K, x2 = 0.7844 | 721.56 | –
[1], 308.15 K, x2 = 0.8841 | 697.7 | –
[1], 308.15 K, x2 = 0.9372 | 685.34 | –
[1], 308.15 K, x2 = 0.9738 | 676.94 | –
[2], 288.15 K, x2 = 0.0492 | – | 7.25
[2], 288.15 K, x2 = 0.0982 | – | 6.84
[2], 288.15 K, x2 = 0.1991 | – | 6.04
[2], 288.15 K, x2 = 0.3006 | – | 5.3
[2], 288.15 K, x2 = 0.398 | – | 4.65
[2], 288.15 K, x2 = 0.4977 | – | 4.05
[2], 288.15 K, x2 = 0.5854 | – | 3.58
[2], 288.15 K, x2 = 0.7026 | – | 3.02
[2], 288.15 K, x2 = 0.801 | – | 2.61
[2], 288.15 K, x2 = 0.8927 | – | 2.28
[2], 288.15 K, x2 = 0.9408 | – | 2.12
[2], 298.15 K, x2 = 0.0494 | – | 6.98
[2], 298.15 K, x2 = 0.0988 | – | 6.59
[2], 298.15 K, x2 = 0.1956 | – | 5.85
[2], 298.15 K, x2 = 0.303 | – | 5.11
[2], 298.15 K, x2 = 0.3959 | – | 4.52
[2], 298.15 K, x2 = 0.4948 | – | 3.96
[2], 298.15 K, x2 = 0.6028 | – | 3.4
[2], 298.15 K, x2 = 0.7018 | – | 2.95
[2], 298.15 K, x2 = 0.7937 | – | 2.59
[2], 298.15 K, x2 = 0.891 | – | 2.25
[2], 298.15 K, x2 = 0.9419 | – | 2.09
[2], 308.15 K, x2 = 0.0494 | – | 6.73
[2], 308.15 K, x2 = 0.0981 | – | 6.35
[2], 308.15 K, x2 = 0.1993 | – | 5.62
[2], 308.15 K, x2 = 0.3025 | – | 4.94
[2], 308.15 K, x2 = 0.3951 | – | 4.39
[2], 308.15 K, x2 = 0.4936 | – | 3.86
[2], 308.15 K, x2 = 0.5951 | – | 3.36
[2], 308.15 K, x2 = 0.7021 | – | 2.89
[2], 308.15 K, x2 = 0.7993 | – | 2.53
[2], 308.15 K, x2 = 0.8953 | – | 2.21
[2], 308.15 K, x2 = 0.9472 | – | 2.06

CCCCCCC [heptane]
Conditions | mass density, 288.15 K [kg/m3] | mass density, 298.15 K [kg/m3] | mass density, 308.15 K [kg/m3] | relative permittivity at zero frequency, 288.15 K | relative permittivity at zero frequency, 298.15 K | relative permittivity at zero frequency, 308.15 K
[3] | 688.03 | 679.58 | 671.03 | – | – | –
[4] | – | – | – | 1.94 | 1.93 | 1.92
